Experimental data published in patent US11819535B2, “Composition and methods for regulating extracellular matrix accumulation” (UNIVERSITY HEALTH NETWORK, priority 2018, dated 2023).

Assays:
[1] = test system: dermal primary human fibroblasts (dPHFs); assay: Western blot of fibronectin, collagen-1 and PAI-1 in dermal primary human fibroblasts; assay type: cell-based; details: for extracellular levels of fibronectin, collagen-1, and PAI-1 (ECM proteins): Etomoxir 10 uM, BAY-876 40 nM, FIG. 2A; for effect on intracellular levels of fibronectin and collagen-1 / effect on downregulation of extracellular fibronectin and collagen-1 by caffeic acid: caffeic acid (40 uM) treated dPHFs; for effect on downregulation of extracellular fibronectin and collagen-1 by caffeic acid: in a dose dependent manner
[2] = test system: SMAD3; assay: SMAD3 luciferase reporter in dPHFs; assay type: cell-based, human; details: for SMAD3 dependent transcription: in response to TGF-B1, caffeic acid 40 uM, WZB-117 10 uM, 2-DG 2 mM
Method: SMAD3 luciferase reporter was constructed as previously described^26. Oligos containing SMAD3 binding sites were designed with BamH1 and Sal1 digestion sites. Forward: 5′-[…]-3′, reverse: 5′-[…]-3′. SMAD oligoes were inserted into a p-delta-51 LUC II reporter. dPHFs were electroporated with construct using an Amaxa mouse neural stem cell nucleofactor kit (Lonza). 24 hours after electroporation, cells were treated as above (cell culture) for 24 hours and lysed to assess for luciferase and renilla activity. Relative luciferase activity was defined as the level of luciferase bioluminescence divided by renilla bioluminescence for each sample.

[3] = test system: radiation-induced skin fibrosis; assay: Murine radiation-induced skin fibrosis model; assay type: in vivo, mice
Source text: All animal procedures were approved by Animal Care Committee at the University Health Network under AUP 3422. A murine skin fibrosis model was created by radiating the hindlimb of C3H/HeJ mice (Jackson Laboratory) or B6.12951-Cd36^tm1Mfe/J mice (Jackson Laboratory) using an XRAD 225Cx (Precision X-Ray) and a 2.5 cm collimator. Prior to irradiation, fluoroscopic imaging was used to confirm and standardize the irradiation site. 40 Gy for C3H mice or 30 Gy for B6 mice was divided equally on the dorsal and ventral side of the leg. Animals were randomized into groups for treatment by a researcher blinded to treatment assignment. For CD36^high cell treatment, 1×10^6 cells in 100 ul PBS were injected into the hindlimb subdermally at 3 sites weekly for 3 weeks starting at 4 weeks post-irradiation. For caffeic acid phenethyl ester treatment, 10 mg/kg was given by intraperitoneal injection by a researcher blinded to treatment. Caffeic acid phenethyl ester or vehicle control was given 3× per week for 10 weeks starting at 1 week post-irradiation. Leg contracture measurement was performed, as previously published^21, after first sedating mice with inhalation anesthesia and ensuring deep sedation through no pain reflex and no muscle tone. Then mice hips were fixed on a custom apparatus. 0.1N equivalent weight was then used to extend the fibrotic and contralateral normal leg and leg extension was measured using a standardized ruler by two assessors blinded to treatment groups. Percentage leg contracture was calculated as 1−leg extension of fibrotic leg/leg extension of contralateral normal leg. Leg contracture was measured biweekly and averaged for the week.
Formalin-fixed, paraffin-embedded 8 um sections treated with Masson's Trichrome Stain were whole slide scanned using Aperio ScanScope XT. Analysis was performed by a researched blinded to treatment. Using ImageJ, whole slide scanned images were loaded using the […] plugin, and then stacked to RGB. Colour deconvolution was used to separate the full-colour images into their red, green and blue components. A threshold of pixel intensity was optimized and set and standardized for all images. A ratio of blue (trichrome) to red (nuclear) pixel density was derived for each image, representing collagen to cell ratio.

[4] = test system: dermal primary human fibroblasts (dPHFs); assay: qRT-PCR gene expression profiling in dPHFs; assay type: cell-based; details: caffeic acid 40 uM
Method: dPHFs obtained from ATCC (PCS-201-012) were cultured in DMEM with 5% FBS. Mesenchymal cells were isolated primarily from C3H or B6 mice. Animals were euthanized and intraperitoneal fat or skin was dissected and minced. Collagenase and hyaluronidase (Stem cell technologies) digestion was performed in a rotating oven at 37 C for 1 hour, passed through a 70 uM filter, and then plated in DMEM+10% FSB to expand the mesenchymal population. Cells were starved for 12 hours in MEM media prior to treatment with TGF-B1 (Sigma), caffeic acid (Sigma), dichloroacetic acid (Sigma), PDGF-BB (R&D Systems), and/or etomoxir (Tocris). All protein and mRNA profiling was performed at 24 hours post-treatment except for PDGF-BB, which was performed at 48 hours post-treatment.
For human and murine skin samples, skin samples were macrodissected and snap frozen in liquid nitrogen and stored at −80° C. For in vitro experiments, cells were trypsinized and either snap frozen in liquid nitrogen or immediately underwent RNA extraction. All RNA was extracted using the RNeasy Mini Kit (Qiagen) according to manufacturer instructions. RNA quality was measured and quantified using either the NanoDrop 2000c Spectrophotometer (Thermo Scientific); we used either A260/280 for cell samples, or RIN for human and murine samples using a 2100 bioanalyzer (Aligent). cDNA was synthesized from normalized amounts of RNA using random hexamer primers and SuperScript III (Invitrogen) on a PTC-200 Peltier Thermal Cycler. Primers were obtained from peer-reviewed publications whenever possible. See Table S1 for references and amplicon size. Primers were validated through BLASTing to ensure specificity, size confirmation by gel electrophoresis at first time use, and by melting curve assessment for all reactions. PCR efficiency was measured using a standard curve through the dilution of a representative sample to determine the linear range of cDNA amounts for qRT-PCR reactions. qRT-PCR reactions were performed on 384-well plates (Applied Biosystems) using SYBR Green PCR Master Mix (Applied Biosystems). The analysis was run on the 7900HT Fast Real-Time PCR System (Applied Biosystems). Reaction conditions for cDNA synthesis and qRT-PCR are found in supplementary data Table S2 and S3 respectively. A no template control was used to monitor contamination and false positive results from primer-dimers. Results of no template controls were confirmed to have higher CT-values and distinct melting curves compared to template reactions. 18S ribosomal RNA was used as an internal control. A 2^−ΔΔCT method was used for relative quantification and for graphical representation in figures. Statistical analysis was performed on biological replicates using Relative Expression Software Tool (REST)^24 set to default parameters.

[5] = test system: dermal primary human fibroblasts (dPHFs); assay: DQ-collagen-1 / lysotracker co-localization in dPHFs; assay type: cell-based; details: TGF-B1 3 ng/ml; caffeic acid 40 uM
[6] = test system: dermal primary human fibroblasts (dPHFs); assay: Lysosome quantification (LysoTracker) and TFEB expression in dPHFs; assay type: cell-based; details: TGF-B1 3 ng/ml; caffeic acid 40 uM
Method: dPHFs were treated as per above (cell culture) and exposed to LysoTracker (ThermoFisher) as per manufacturer's instructions on a 4 chamber cover glass system (ThermoFisher). Images were obtained using an Olympus Fluoview laser-scanning confocal microscope. Fluorescence intensity was quantitated per cell using the Object Identification module and Measurement function of Volocity software. Cell area was measured using ImageJ software.

[7] = test system: dermal primary human fibroblasts (dPHFs); assay: FAO and glycolysis functional assessment (Seahorse) in dPHFs; assay type: cell-based; details: TGF-B1 stimulated dPHFs
Method: FAO and Glycolysis Functional Assessment for dPHFs • Seahorse experiments were performed on an XFe96 analyzer (Aligent) based on manufacturer's instructions. dPHFs were prepared as per above (cell culture) on an XF96 culture plate. For glycolysis profiling, final concentration of glucose (1 mM or 10 mM), oligomycin (1 uM), and 2-DG (100 mM) was utilized. For FAO, palmitate sodium (Sigma) and BSA-fatty acid free (Sigma) were used to make palmitate-BSA (0.17 mM) as per manufacturer's instructions. Etomoxir (Tocris) 40 uM final concentration was used.

[8] = test system: CD36; assay: CD36 gene (qRT-PCR) and surface (flow cytometry) expression in dPHFs; assay type: cell-based, human
Method: For human and murine skin samples, skin samples were macrodissected and snap frozen in liquid nitrogen and stored at −80° C. For in vitro experiments, cells were trypsinized and either snap frozen in liquid nitrogen or immediately underwent RNA extraction. All RNA was extracted using the RNeasy Mini Kit (Qiagen) according to manufacturer instructions. RNA quality was measured and quantified using either the NanoDrop 2000c Spectrophotometer (Thermo Scientific); we used either A260/280 for cell samples, or RIN for human and murine samples using a 2100 bioanalyzer (Aligent). cDNA was synthesized from normalized amounts of RNA using random hexamer primers and SuperScript III (Invitrogen) on a PTC-200 Peltier Thermal Cycler. Primers were obtained from peer-reviewed publications whenever possible. See Table S1 for references and amplicon size. […] PCR efficiency was measured using a standard curve through the dilution of a representative sample to determine the linear range of cDNA amounts for qRT-PCR reactions. qRT-PCR reactions were performed on 384-well plates (Applied Biosystems) using SYBR Green PCR Master Mix (Applied Biosystems). […] A 2^−ΔΔCT method was used for relative quantification and for graphical representation in figures. […]

[9] = mice with skin fibrosis, CAPE IP 10 mg/Kg 3 times per week for 10 weeks
[10] = TGF-B1 treated dPHFs, caffeic acid 40 uM

For `O=CC[C@@H](O)[C@H](O)[C@H](O)CO` [2-DG, 2-deoxy-d-glucose], the “extracellular levels of fibronectin, collagen-1, and PAI-1 (ECM proteins)” value (from here on “extracellular levels of fibronectin”) ([1]; dPHFs, WZB-117 10 uM) was “downregulation” and the SMAD3 dependent transcription [2] was “inhibited”.

With `Cc1c(NC(=O)c2cc(C(N)=O)nc3cc(F)ccc23)c(C(F)(F)F)nn1Cc1ccc(C#N)cc1` [BAY-876] the “extracellular levels of fibronectin” value ([1]; dPHFs, WZB-117 10 uM) was “downregulation”.

In the case of `O=C(/C=C/c1ccc(O)c(O)c1)OCCc1ccccc1` [CAPE, caffeic acid phenethyl ester], the “fibronectin, collagen-1 and PAI-1” value ([1]; TGF-B1 (3 ng/ml) treated dPHFs, CAPE 5 uM) was “downregulate”, the “functional and histological evidence of fibrosis severity (leg contracture, trichrome)” value ([3]; CAPE IP 10 mg/Kg 3 times per week for 10 weeks) was “significantly reduced” and the “PPAR signaling in skin” value [3, 9] was “upregulated”. The “expression of CD36 in skin” value [3, 9] was “upregulated” and the “CD36 expression in vimentin+ (mesenchymal) cells, co-immunofluorescence” value ([3]; mice with skin fibrosis, CAPE treatment) was “increase”.

With `Cl.N` [NH4Cl] the “effect on intracellular levels of fibronectin and collagen-1” value [1] was “no effect” and the “effect on downregulation of extracellular fibronectin and collagen-1 by caffeic acid” value [1] was “inhibit”.

`O=C(Oc1cccc(F)c1OC(=O)c1cccc(O)c1)c1cccc(O)c1` [WZB-117] was tested, and the “extracellular fibronectin, collagen-1 and PAI-1 protein levels” value ([1]; TGF-B1 3 ng/ml, WZB-117 10 uM, even in dPHFs lacking PPARG and ACOX1) was “reduced”, the “extracellular levels of fibronectin” value ([1]; dPHFs, WZB-117 10 uM) was “downregulation” and the SMAD3 dependent transcription [2] was “inhibited”.

With `O=C(O)/C=C/c1ccc(O)c(O)c1` [caffeic acid] the PPAR genes expression ([4]; TGF-B1 (3 ng/ml) treated dPHFs) was “upregulated”, the glycolysis genes expression ([4]; TGF-B1 (3 ng/ml) treated dPHFs) was “downregulated” and the “FN1 and COL1A1 expression” value ([4]; TGF-B1 stimulated fibroblasts) was “moderately decreased”. For the same compound, the “expression of PAI” value ([4]; TGF-B1 stimulated fibroblasts) was “significantly downregulated”, the “extracellular fibronectin and collagen-1” value [1, 10] was “markedly downregulated” and the “intracellular and extracellular PAI-1” value [1, 10] was “reduced”. The “co-localization between DQ-collagen-1 and lysosomes” value [5] was “significant increase”, the “expression of TFEB and lysosomes in dPHFs” value [6] was “increasing” and the “functional shift of metabolism (glycolysis vs FAO)” value [7] was “functionally shifted metabolism from glycolysis to FAO”. For the same compound, the SMAD3 dependent transcription [2] was “reduced” and the “CD36 gene and surface expression” value ([8]; TGF-B1 stimulated dPHFs, caffeic acid 40 uM) was “restored”.

`CCN(CC)CCCC(C)Nc1ccnc2cc(Cl)ccc12` (stereo not shown) [chloroquine] was tested, and the “effect on intracellular levels of fibronectin and collagen-1” value [1] was “no effect” and the “effect on downregulation of extracellular fibronectin and collagen-1 by caffeic acid” value [1] was “inhibit”.

`CCOC(=O)[C@@]1(CCCCCCOc2ccc(Cl)cc2)CO1` [etomoxir] was tested, and the “effect on the downregulation of pro-fibrotic proteins by caffeic acid” value ([1]; TGF-B1 + caffeic acid 40 uM + etomoxir, dPHFs) was “inhibited”, the “extracellular levels of fibronectin” value ([1]; dPHFs, WZB-117 10 uM) was “elevation” and the “rescue of WZB-117 and 2-DG inhibition of SMAD3 dependent transcription” value ([2]; TGF-B1 + WZB-117 or 2-DG + etomoxir 10 uM) was “not rescued”. The “effect on caffeic acid's reduction of SMAD3 dependent transcription” value ([2]; TGF-B1 + caffeic acid 40 uM + etomoxir 10 uM) was “inhibited” and the CD36 surface expression ([8]; dPHFs, Etomoxir 10 uM for 24 hours) was “downregulated”.
